The source of these data is patent US20180153830A1, “SELECTIVE INHIBITORS OF UNDIFFERENTIATED CELLS” (Yissum Research Development Company of the Hebrew …, priority 2012, published 2018).

Experiment [1] concerns spliced isoform sXBP1 in ES-derived differentiated cells. The experiment can be described thus: sXBP1 quantitative PCR, differentiated cells. In kind it is cell-based, human. To be noted: 20 μM PluriSIn #1 or 100 nm A939572.
The subject of experiment [2] is phosphorylated eIF2α in hPSCs. Briefly: Phospho-eIF2α immunoblot, ES cells. It counts as cell-based, human. The conditions noted are these: 20 μM PluriSIn #1 or 100 nm A939572. The method, then:
For immunoblotting, 10% polyacrylamide gel was used for protein separation and detection. The gel was transferred to a nitrocellulose membrane and antibody hybridization and chemiluminescence were performed according to standard procedures. The primary antibodies in this analysis were rabbit anti-phosphorylated-eIF2a (1:250, Cell Signaling Technology), rabbit anti caspase-3 (1:1,000, Cell Signaling Technology), mouse anti β-catenin (1:10,000, BD Biosciences) and mouse anti-α-tubulin (1:50,000, Sigma-Aldrich). Horseradish peroxidase-conjugated anti-rabbit and anti-mouse secondary antibodies were obtained from Jackson Immunoresearch Laboratories.
To further study the significance of UPR, XBP1 mRNA splicing and eIF2α phosphorylation, hallmarks of UPR, were further examined. Human ES cells and ES-derived differentiated cells were treated with PluriSIn #1 for 12 hours, and expression of the spliced isoform sXBP1 was determined by quantitative PCR and by immunoblotting, as described in the Materials and Methods section. Gene expression change conferred by dithiothreitol ([…]) was used as a positive control.
For orientation: In western blotting, separated proteins are transferred to a membrane and probed.

For experiment [3], the system named is mouse embryos (inner cell mass). Briefly: In-vitro embryonic development experiments. In kind it is cell-based. To be noted: for proportion of high quality blastocysts: compound alone; for embryos developing into good quality (category A/B) blastocysts: compound alone (20 μM PluriSIn #1 or 100 nm A939572); for embryos developing into good quality blastocysts with oleic acid / proportion of high quality blastocysts with oleic acid: compound with 100 μM oleic acid. Here is the method: Superovulation was induced in female mice (CB6F1/OLAHSD and ICR:HSD(CD-1)), by injection of gonadotropins: intraperitoneal injection of 5 IU PMSG (pregnant mare's serum gonadotropin) at 1:00 P.M. was followed by an intraperitoneal injection of 5 IU hCG (human chorionic gonadotropin) 47 hours later, in accordance with the procedures described by Najy et al. [Manipulating the mouse embryo: a laboratory manual, 3rd Edn., Cold Spring Harbor Laboratory Press (2003)].
Females were mated with stud males immediately after the second injection, and plugging was evident the next morning. Pregnant female mice were sacrificed at approximately 36 hours p.c. (post coitum), and two-cell embryos were collected in accordance with the procedures described by Najy et al. [Manipulating the mouse embryo: a laboratory manual, 3rd Edn., Cold Spring Harbor Laboratory Press (2003)]. The abdominal cavity was opened, and the oviduct was cut and transferred to a Petri dish containing M2 medium at room temperature. The oviduct was flushed with M2 medium, and embryos were picked up using a pipette and washed in M2 medium to rinse off debris. Embryos were then transferred to microdrops of M16 medium. A 35 mm culture dish (Falcon BD) containing drops of 40 μl M16 medium, covered with mineral oil, was prepared the day before, and incubated overnight at a temperature of 37° C. under 5% CO2. Embryos were then transferred to these microdrops following their collection, and incubated at a temperature of 37° C. under 5% CO2. The development of the embryos was examined twice a day using light microscopy imaging. At the morula stage (approximately 3.5 days p.c.), embryos were transferred either to microdrops of 40 μl M16 medium with 20 μM PluriSIn #1 (isonicotinic acid N′-phenylhydrazide) in 0.2% DMSO, or to control microdrops with 0.2% DMSO. Other control embryos were left at the original microdrops to control for possible effects of the transfer itself. At approximately 4 days p.c. and 4.5 days p.c., the embryos were examined using light microscopy imaging, and blastocysts were graded as described by Cortes et al. [Stem Cells and Development 17:255-267 (2008)].
As described in the Materials and Methods section, a series of independent experiments were performed with two strains of mice, in which two-cell embryos were collected from the oviducts of pregnant mice at approximately 1.5 days post coitum, and these embryos were then let to develop in vitro. The embryos reached the morula stage at approximately 3.5 days post coitum, and were then transferred either to drops with 20 μM PluriSIn #1 (17 embryos in total), drops with 20 μM PluriSIn #1 and 100 μM oleic acid (7 embryos in total), or to control drops with 0.2% DMSO (8 embryos in total), while other control embryos were left to develop without transfer at all (10 embryos in total). Using light microscopy imaging, the development of the embryos was followed until they became mature blastocysts (at approximately 4.5 days post coitum, after which all embryos disintegrated in culture). The blastocysts were then classified into three distinct categories: (A) good quality mouse blastocysts with large and distinct ICM; (B) mouse blastocysts with distinct, but smaller, ICM; and (C) bad quality mouse blastocysts with indistinguishable ICM, as described by Cortes et al. [Stem Cells and Development 17:255-267 (2008)].
The above experiments with mouse embryos were then repeated using the SCD1 inhibitor A939572 instead of PluriSIn #1, and compared with the results obtained with PluriSIn #1, in order to confirm that the effects of PluriSIn #1 are associated with inhibition of SCD1 activity.

For experiment [4], the system named is CSES2-SO2/3-derived differentiated cells. The experiment can be described thus: Fluorescence microscopy imaging of differentiated CSES2-SO2/3 cells. To be noted: 24 hours of exposure. In kind it is cell-based, human. Here is the method: High content imaging of CSES2-SO2/3 fluorescent cells (mCherry+ or EGFP+) was performed in black clear-bottom 384-well assay plates (Falcon BD), using the Opera high-content screen imaging platform (PerkinElmer). Otherwise, light and fluorescence imaging of all cells was performed in 24-well, 6-well or 10 cm CELLSTAR® plates (Greiner Bio-One), using an Olympus CellR imaging station. Light imaging of developing mouse embryos was performed in 35 mm culture dishes (Falcon BD), using an Olympus IX70 microscope.
CSES2-SO2/3 is a genetically-labeled cell line that expresses mCherry under the promoter of the pluripotency hallmark gene OCT-4, and GFP under the promoter of the early endodermal marker SOX17. Therefore, these cells are red while undifferentiated, and become green upon their differentiation into the endodermal lineage [Kopper & Benvenisty, Stem Cell Research 8:335-345 (2011)]. Green early endodermal progenitor cells were generated from the red undifferentiated cells, using an 8-day differentiation protocol as described by Duan et al. [Stem Cells 28:674-686 (2010)].
In order to further verify the selectivity of the PluriSIns, and rule out any potential assay-related interference, undifferentiated and differentiated CSES2-SO2/3 cells were subjected to microscopy imaging after 24 hours of exposure to PluriSIns.

Structures are written as SMILES. “And” between values parts separate entries of the source, which are not always exact repeats. Equal entries are not always repeated.

As for `CNC(=O)c1cccc(NC(=O)N2CCC(Oc3ccccc3Cl)CC2)c1` [A939572, 4-(2-chlorophenoxy)-N-(3-(methylcarbamoyl)-phenyl)piperidine-1-carboxamide, reference compound], the “expression of spliced isoform sXBP1, differentiated cells” value in experiment [1] is on record as “did not increase expression”. For the same compound, in experiment [2], the “levels of phosphorylated eIF2α, ES cells” value is “increased levels”. In experiment [3], the “proportion of high quality blastocysts” value is 56%, the “embryos developing into good quality (category A/B) blastocysts” value was 5 of 9, the “embryos developing into good quality blastocysts with oleic acid” value is listed as 5 of 7 and the “proportion of high quality blastocysts with oleic acid” value is 71%.
On to `O=C(NNc1ccccc1)c1ccncc1` [PluriSIn #1, isonicotinic acid N′-phenylhydrazide], for which the “effect on differentiated cells” value in experiment [4] is recorded as “without exhibiting any detectable effect”. Moreover, in experiment [1], the “expression of spliced isoform sXBP1, differentiated cells” value is given as “did not increase”. In addition, in experiment [2], the “levels of phosphorylated eIF2α, ES cells” value is on record as “increased levels”. In experiment [3] (20 μM), the “embryos developing into blastocysts with no distinguished ICM (category C)” value was 6 of 17 and 6/17; the “embryos stuck at the morula stage” value is 4 of 17 and 4/17. In experiment [3], the “proportion of high quality blastocysts” value was 41%; the “embryos developing into good quality (category A/B) blastocysts” value is 7 of 17 and 7/17; the “embryos developing into good quality blastocysts with oleic acid” value is 5 of 7; the “proportion of high quality blastocysts with oleic acid” value amounted to 71%.
As for `Cc1ccc(NNC(=O)C(O)(c2ccccc2)c2cccs2)cc1` (stereo not shown) [PluriSIn #6, 2-hydroxy-2-(thiophen-2-yl)-2-phenylacetic acid 4-methyl-N′-phenylhydrazide], the “effect on differentiated cells” value in experiment [4] is listed as “without exhibiting any detectable effect”.
